Experiments:
human plasma RT = assay: Selective destruction of endogenous RT activity in plasma, protocol I; format: biochemical; conditions: EDTA plasma with disrupted lymphocytes, 1 hour at room temperature
Description: EDTA plasma with disrupted lymphocytes from a healthy blood donor and FIV diluted in inactivated foetal calf serum (totally devoid of plasma RT activity) were incubated for 1 hour at room temperature with indicated concentration of: A) 5,5′-dithiobis-(2-nitrobensoic acid), B) thimerosal. The samples were separated according to “Protocol for determination of retroviral RT from material which contains RT blocking antibodies”. The RT activities recovered were determined with an RT assay (Cavidi HS-kit Lenti RT).

human plasma polymerase = assay: Resurrection of plasma polymerase activity after treatment with cysteine-modifying agents; format: biochemical
Description: A set of human plasma samples (60% plasma in water) was first incubated with 3 mM of indicated cysteine-modifying substance or water (as control) at room temperature for 1 hour. Serial dilutions of five potentially reactivating substances were then added and the samples were incubated for another hour. Each sample was finally diluted 1:20 and residual RT activity was determined with Cavidi® HS kit Lenti RT. The total reduction in substance concentration between sample incubation and RT assay was 200 times. The RT activities recovered were recalculated into percent of the activity of a control consisting of plasma incubated in absence of additions during both incubation steps.

[1] = target: Recombinant wild type HIV 1 RT (Human immunodeficiency virus type 1 group M subtype B, UniProt P04585); conditions: in foetal calf serum, 60 minutes at 22° C.
Description: (§1) Recombinant wild type HIV 1 RT (▪), Recombinant RT from a Nevirapine resistant HIV 1 mutant (Y181C) (⋄), Jaagsiekte virus (JSV) RT from a sheep lung cancer (▾), […] (FIV) RT (∘), Bovine Leukaemia virus (BLV) RT (♦) and Porcine Endogenous Retrovirus (PERV) RT (●)derived from cell culture were dilute in heat inactivated foetal calf serum. The different virus enzyme preparations and an EDTA plasma sample from a healthy blood donor (□) were incubated with indicated thimerosal concentration at room temperature (22° C.) for 60 minutes. All the samples were diluted 100 fold in an RT assay compatible buffer and the residual RT activity in each sample was then determined. Three RT assays, each adapted to the type of RT measured were used: HIV 1, JSV, and FIV RTs were measured with Cavidi® HS kit Lenti RT BLV RT with Cavidi® HS kit HTLV RT and PERV and human plasma RT with Cavidi® HS kit Mn^2+ RT.

FIV RT = conditions: in foetal calf serum, 60 minutes at 22° C.
Description: as §1

[2] = target: Recombinant RT from a Nevirapine resistant HIV 1 mutant (Y181C) (Human immunodeficiency virus type 1 group M subtype B, UniProt P04585, Y768C); conditions: in foetal calf serum, 60 minutes at 22° C.
Description: as §1

[3] = target: Jaagsiekte virus (JSV) RT (Sheep pulmonary adenomatosis virus, UniProt P31623); conditions: in foetal calf serum, 60 minutes at 22° C.
Chain of Jaagsiekte virus (JSV) RT (P31623 866-1446 limits assumed): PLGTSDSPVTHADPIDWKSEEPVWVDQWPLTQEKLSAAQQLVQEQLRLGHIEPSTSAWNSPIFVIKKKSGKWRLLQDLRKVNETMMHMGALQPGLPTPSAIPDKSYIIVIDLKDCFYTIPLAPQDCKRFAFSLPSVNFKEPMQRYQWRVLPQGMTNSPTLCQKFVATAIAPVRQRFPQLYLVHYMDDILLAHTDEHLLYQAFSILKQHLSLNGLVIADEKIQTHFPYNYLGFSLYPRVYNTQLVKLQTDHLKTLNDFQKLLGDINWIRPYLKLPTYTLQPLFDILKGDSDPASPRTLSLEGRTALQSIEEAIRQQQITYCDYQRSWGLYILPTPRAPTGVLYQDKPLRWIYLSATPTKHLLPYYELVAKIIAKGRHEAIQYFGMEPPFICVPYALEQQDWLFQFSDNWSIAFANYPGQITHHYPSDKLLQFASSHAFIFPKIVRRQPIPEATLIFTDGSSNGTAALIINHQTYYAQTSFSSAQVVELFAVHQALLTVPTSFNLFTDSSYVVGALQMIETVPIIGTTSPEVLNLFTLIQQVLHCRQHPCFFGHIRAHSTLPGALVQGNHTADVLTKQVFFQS
Description: as §1

SMILES: C[CH2][Hg][S]c1ccccc1C(=O)[O-].[Na+] [Thimerosal]
- Concentration that totally eliminated the human plasma RT activity (human plasma RT): > 3 mM
- Conditions required to reactivate polymerase activity treated with the agent (human plasma polymerase; 3 mM agent, then reactivating substances): quite easily reactivated
- Polymerase activity after second incubation with DTT (% of control) (human plasma polymerase; 3 mM destroying agent first, 1.1 mM DTT): 84%
- Polymerase activity after second incubation with MSA (% of control) (human plasma polymerase; 3 mM destroying agent first, 1.1 mM MSA): 17%
- Polymerase activity after second incubation with cysteamine (% of control) (human plasma polymerase; 3 mM destroying agent first, 1.1 mM cysteamine): 0%
- Polymerase activity after second incubation with cysteine (% of control) (human plasma polymerase; 3 mM destroying agent first, 1.1 mM cysteine): 4%
- Polymerase activity after second incubation with glutathione (% of control) (human plasma polymerase; 3 mM destroying agent first, 1.1 mM glutathione): 12%
- Polymerase activity after second incubation with DTT (% of control) (human plasma polymerase; 3 mM destroying agent first, 3.3 mM DTT): 248%
- Polymerase activity after second incubation with MSA (% of control) (human plasma polymerase; 3 mM destroying agent first, 3.3 mM MSA): 19%
- Polymerase activity after second incubation with cysteamine (% of control) (human plasma polymerase; 3 mM destroying agent first, 3.3 mM cysteamine): 0%
- Polymerase activity after second incubation with cysteine (% of control) (human plasma polymerase; 3 mM destroying agent first, 3.3 mM cysteine): 14%
- Polymerase activity after second incubation with glutathione (% of control) (human plasma polymerase; 3 mM destroying agent first, 3.3 mM glutathione): 21%
- Polymerase activity after second incubation with DTT (% of control) (human plasma polymerase; 3 mM destroying agent first, 10 mM DTT): 377%
- Polymerase activity after second incubation with MSA (% of control) (human plasma polymerase; 3 mM destroying agent first, 10 mM MSA): 7.3%
- Polymerase activity after second incubation with cysteamine (% of control) (human plasma polymerase; 3 mM destroying agent first, 10 mM cysteamine): 2%
- Polymerase activity after second incubation with cysteine (% of control) (human plasma polymerase; 3 mM destroying agent first, 10 mM cysteine): 37%
- Polymerase activity after second incubation with glutathione (% of control) (human plasma polymerase; 3 mM destroying agent first, 10 mM glutathione): 37%
- Polymerase activity after second incubation with DTT (% of control) (human plasma polymerase; 3 mM destroying agent first, 30 mM DTT): 448%
- Polymerase activity after second incubation with MSA (% of control) (human plasma polymerase; 3 mM destroying agent first, 30 mM MSA): 3.4%
- Polymerase activity after second incubation with cysteamine (% of control) (human plasma polymerase; 3 mM destroying agent first, 30 mM cysteamine): 1%
- Polymerase activity after second incubation with cysteine (% of control) (human plasma polymerase; 3 mM destroying agent first, 30 mM cysteine): 68%
- Polymerase activity after second incubation with glutathione (% of control) (human plasma polymerase; 3 mM destroying agent first, 30 mM glutathione): 7%
- Polymerase activity after second incubation with water (% of control) (human plasma polymerase; 3 mM destroying agent first, water in second incubation): 0%
- Sensitivity of enzyme to thimerosal treatment [1]: totally resistant
- Sensitivity of enzyme to thimerosal treatment (FIV RT): most sensitive
- Sensitivity of enzyme to thimerosal treatment [2]: most sensitive
- Sensitivity of enzyme to thimerosal treatment [3]: totally resistant

From patent publication US20040110265A1, “Recovery of enzyme activity from enveloped viruses” (priority 2001, published 2004)
